Earlier results on 1 compound are cited in patent US20230270735A1, “TOPICAL FORMULATION” (INCANTHERA (R&D) LTD, priority 2020, published 2023).

Like-named read-outs stand apart in the source and are kept apart here.

Test in data set [1]: not given
This is another data set of the same source.

The next data set deals with actinic keratoses (AK). The settings on record: 4 months.
For a further data set, the target named is PARP-1 (Homo sapiens, UniProt P09874). The settings on record: at a concentration of 50 μmol L^−1, in vitro.
PARP-1, sequence (P09874 whole entry, species assumed): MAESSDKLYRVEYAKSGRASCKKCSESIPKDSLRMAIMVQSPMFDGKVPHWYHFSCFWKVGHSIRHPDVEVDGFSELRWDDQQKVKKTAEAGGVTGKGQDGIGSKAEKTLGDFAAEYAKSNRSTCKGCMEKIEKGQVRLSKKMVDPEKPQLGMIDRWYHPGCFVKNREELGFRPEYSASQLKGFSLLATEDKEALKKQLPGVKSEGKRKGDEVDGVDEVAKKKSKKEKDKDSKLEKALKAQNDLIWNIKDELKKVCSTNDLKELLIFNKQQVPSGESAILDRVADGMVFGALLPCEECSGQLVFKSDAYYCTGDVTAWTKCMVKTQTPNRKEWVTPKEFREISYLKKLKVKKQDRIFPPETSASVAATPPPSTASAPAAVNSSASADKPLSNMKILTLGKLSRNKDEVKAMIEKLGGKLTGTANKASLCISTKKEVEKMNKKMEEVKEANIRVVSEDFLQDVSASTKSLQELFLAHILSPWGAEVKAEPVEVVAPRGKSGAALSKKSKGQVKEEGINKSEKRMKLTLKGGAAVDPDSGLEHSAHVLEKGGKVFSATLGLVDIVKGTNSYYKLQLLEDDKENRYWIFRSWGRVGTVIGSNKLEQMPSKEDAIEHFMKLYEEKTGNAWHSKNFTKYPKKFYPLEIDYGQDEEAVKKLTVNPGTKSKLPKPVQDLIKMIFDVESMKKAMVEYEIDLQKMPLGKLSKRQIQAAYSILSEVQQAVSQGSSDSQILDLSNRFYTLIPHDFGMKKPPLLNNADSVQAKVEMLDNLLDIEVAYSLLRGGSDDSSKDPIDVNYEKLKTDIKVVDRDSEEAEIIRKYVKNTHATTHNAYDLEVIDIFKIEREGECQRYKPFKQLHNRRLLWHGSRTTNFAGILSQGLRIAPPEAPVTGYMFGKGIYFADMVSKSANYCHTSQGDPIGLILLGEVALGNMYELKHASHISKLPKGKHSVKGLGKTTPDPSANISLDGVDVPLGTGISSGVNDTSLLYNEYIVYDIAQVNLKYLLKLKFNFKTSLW

Consider `NC(=O)c1cccnc1` [NAM, pyridine-3-carboxamide], for which the “Log P (octanol/water)” value is listed as −0.4. Further, the “range of peak plasma concentrations” value in data set [1] (1 g (~0.5 g/M^2) oral dose, healthy volunteers) was 81 to 158 µmol/L. The peak plasma concentrations in data set [1] (oral 500 mg, extrapolated by Malesu et al. (22) from Stratford data) was approximately 80 µmol/L. For the same compound, the “reduction in AK versus baseline” value in the data set with actinic keratoses (AK) (study 1, oral 500 mg twice daily) was 35%. Moreover, the “reduction in AK versus baseline” value with actinic keratoses (AK) (study 2, oral 500 mg once daily) was 29%. Besides, the “rate of new nonmelanoma skin cancers lowered compared with placebo” value in the data set with nonmelanoma skin cancers (oral 500 mg twice a day, 12 months) is reported as 23%. The “CD4^+ helper T cells and cytotoxic CD8^+ T cells in the tumour microenvironment of melanomas, compared with placebo” value with nonmelanoma skin cancers (oral NAM group) is recorded as “significant increase”. Besides, the systemic adverse effects result in the data set on nonmelanoma skin cancers (oral doses 500-1,000 mg/day) is reported as “without significant systemic adverse effects”. Moreover, at PARP-1, the “inhibition of PARP-1” value is recorded as 60%.
